According to US7407940B2, “Antimicrobial hexapeptides” (Helix BioMedix Inc., priority 2005, dated 2008):
Converted amounts (≈) assume the structure as drawn. Read-outs that look alike come from different tables or passages of the source. Where a SMILES comes first, the peptide text is derived from it. Where no end group is shown, it is not given here. The star is where a group is joined. Pentadecanoyl = CCCCCCCCCCCCCCC(=O)*; Tridecanoyl = CCCCCCCCCCCCC(=O)*; Myristoyl = CCCCCCCCCCCCCC(=O)*; Lauroyl = CCCCCCCCCCCC(=O)*; Octanoyl = CCCCCCCC(=O)*

Columns and labels:
[1] = system: Candida albicans; assay type: cell-based
Description: (§1) MICs (minimal inhibitory concentrations) were determined for the hexapeptides of interest using a slightly modified version of the NCCLS (National Committee for Clinical Laboratory Standards) broth microdilution method as described previously (Steinberg et al., AAC 41: 1738, 1997). Briefly, antimicrobial agents were prepared as 10× concentrates in the most appropriate solvent. For the hexapeptide, 0.01% acetic acid containing 0.2% bovine serum albumin as a carrier protein was used. Inocula were prepared by resuspending colonies from a BAP (please spell out this term) in medium and adjusting the suspension to match that of a 0.5 McFarland standard. The suspension was diluted into fresh medium (as recommended by NCCLS for the organism) to give 2×10^5 to 7×10^5 CFU/ml for bacteria or 2×10^3 to 7×10^3 CFU/ml for Candida. After dispensing 100 μl aliquots of the microbial suspension into each well of a 96-well polypropylene microtiter plate, 11 μl of test compound was added. The MIC was defined as the lowest concentration of drug which prevented visible turbidity after 16 to 20 hours (bacteria) or 46 to 50 hours (Candida) at 35° C.

[2] = system: azole resistant strains of C. albicans; assay type: cell-based; design: MIC-SEQ ID NO: 55 + azole, peptide part / MIC-SEQ ID NO: 55 + azole, azole part: unit not given beside the values; details: in combination with SEQ ID NO: 55
Description: (§2) The fractional inhibitory concentration (FIC) index was used to determine the synergy between antimicrobial agents. Peptide MICs against test microorganisms were determined three times on separate occasions. […]
All strains are azole resistant clinical isolates from Prof. Ted White (Seattle Biotechnology Research Institute, Seattle)

[3] = design: species or system Sprague-Dawley rats; details: rat, in vivo
From the text: Each wound observed at each dressing change and the wound surface and tissue reaction assessed. There were 5 parameters of wound status that were checked: • i. Wound Film Security—Was the adhesive film used to cover the wound still completely adherent to the skin around the wound? • ii. Wound Surface—What was the exact visual appearance of the wound surface? • iii. Amount of Exudate—How much exudate was trapped under the film? In many cases, accumulated exudate causes the film to lose adherence and the exudates will escape. • iv. Severity of Tissue Reaction—A subjective rating of extent of tissue reaction on a scale of 1 (minimal), 2 (moderate), 3 (extensive). • v. % of Tissue Involved—In some situations, the wound surface contained denatures, friable tissue that could be wiped off with pressure applied to gauze. This test was used to better differentiate denatured tissue from viscous exudates.

[4] = system: Staphylococcus aureus; assay type: cell-based
Description: as §1

[5] = system: Pseudomonas aeruginosa; assay type: cell-based; design: MIC, lipid length SAR: unit not given here; details: for MIC, lipid length SAR: P.aeruginosa; for MIC: agent alone
Description: as §1

[6] = system: Trychophyton mentagrophytes; test: MIC100 against dermatophyte Trychophyton mentagrophytes; assay type: cell-based; details: T. mentagrophytes; at 10 days
Description: (§3) In order to compare the activity of various antimicrobial peptides, including hexapeptide SEQ ID NO:1 (P0666), MIC were determined against the dermatophytes Trychophyton rubrum and Trychophyton mentagrophytes. The concentration of samples investigated were: 2000, 1000, 500, 250 and 125 μg/ml, respectively. The medium used was modified Sabouraud's media without agar. For a 100 mL of modified Sabouraud medium: 3 g of Sabouraud's dextrose broth (Difco) was mixed into 100 mL of deionized water. The pH was adjusted to 7.0 with 0.1 N NaOH. The solution was autoclaved for thirty minutes. 940 μL of medium was poured into sterile 20 mL test tubes with plastic caps and was allowed to cool.
(§4) 50 μL of […] was added to each 20 mL test tube to make the required concentration. A control tube was composed of 50 μL of saline without sample. For the MIC experiments,
(§5) 10 μL of organism suspended in saline was added to the each 20 mL test tube and vortexed slightly. Each of the test tubes was covered in parafilm and maintained on a shaker at 27° C. at a speed of approximately 100 rpm.
(§6) The growth/inhibition of the organism was observed on a daily basis. […] The Minimum Inhibition Concentration (MIC100) for compounds F1 to F10 against fungus Trychophyton rubrum and Trychophyton mentagrophytes at 10 days.

[7] = system: Trychophyton rubrum; test: MIC100 against dermatophyte Trychophyton rubrum; assay type: cell-based; details: T. rubrum; at 10 days
Description: as §3, §4, §5, §6

[8] = system: MRSA; test: Kill curve in 10% sheep serum-phosphate buffer against MRSA; assay type: cell-based, S. aureus; design: MRSA count in kill curve: unit not given here
[9] = system: P. acnes; test: Activity against extended panel of P. acnes; assay type: cell-based; design: unit not given here
From the text: A very promising application for short bioactive peptides is for dermatological indications such as acne.

[10] = system: Salmonella typhimurium 14028S; test: MIC, broth microdilution, S. typhimurium; assay type: cell-based; design: unit not given here; details: S.typhimurium
Description: as §1

[11] = system: P. aeruginosa; assay type: cell-based; details: combined with SEQ ID NO: 55
Description: as §2

## Clc1ccccc1C(c1ccccc1)(c1ccccc1)n1ccnc1 [Clotrimazole, clotrimazole, reference compound]
[1]; T.W. Candida #184, azole resistant clinical isolate
  MIC: > 256 µg/mL
[1]; T.W. Candida #185 (CDR1,2), azole resistant clinical isolate
  MIC: 128 µg/mL (≈ 371 µM)
[1]; T.W. Candida #186 (CDR1,2), azole resistant clinical isolate
  MIC: 32 µg/mL (≈ 92.8 µM)
[1]; T.W. Candida #187 (CDR1,2), azole resistant clinical isolate
  MIC: > 256 µg/mL
[1]; T.W. Candida #192 (CDR1,2), azole resistant clinical isolate
  MIC: 128 µg/mL (≈ 371 µM)
[1]; T.W. Candida #193, azole resistant clinical isolate
  MIC: 0.5 µg/mL (≈ 1.45 µM)
[1]; T.W. Candida #194, azole resistant clinical isolate
  MIC: > 256 µg/mL
[1]; T.W. Candida #195, azole resistant clinical isolate
  MIC: 256 µg/mL (≈ 742 µM)
[1]; T.W. Candida #196 (CDR1,2), azole resistant clinical isolate
  MIC: 64 µg/mL (≈ 186 µM)
[1]; T.W. Candida #197, azole resistant clinical isolate
  MIC: > 256 µg/mL
[1]; T.W. Candida #198, azole resistant clinical isolate
  MIC: > 256 µg/mL
[1]; T.W. Candida #199 (CDR1,2), azole resistant clinical isolate
  MIC: 64 µg/mL (≈ 186 µM)
[2]; C. albicans #185
  MIC-SEQ ID NO: 55 + azole, azole part: 12.5
[2]; C. albicans #186
  MIC-SEQ ID NO: 55 + azole, azole part: 12.5
[2]; C. albicans #187
  MIC-SEQ ID NO: 55 + azole, azole part: 25
[2]; C. albicans #192
  MIC-SEQ ID NO: 55 + azole, azole part: 50
[2]; C. albicans #196
  MIC-SEQ ID NO: 55 + azole, azole part: 50
[2]; C. albicans #199
  MIC-SEQ ID NO: 55 + azole, azole part: 25

## CCCCCCCC(=O)N[C@@H](CCCCN)C(=O)N[C@@H](Cc1ccccc1)C(=O)N[C@@H](CCCCN)C(=O)N[C@@H](Cc1c[nH]c2ccccc12)C(=O)N1CCC[C@H]1C(=O)N[C@@H](Cc1c[nH]c2ccccc12)C(N)=O [SEQ ID NO: 55 (P-1032)] (Octanoyl-KFKWPW-NH2)
[3]
  Tissue reaction severity: 1

## CCCCCCCCCCCC(=O)N[C@@H](CCCCN)C(=O)N[C@@H](Cc1ccccc1)C(=O)N[C@@H](CCCCN)C(=O)N[C@@H](Cc1c[nH]c2ccccc12)C(=O)N1CCC[C@H]1C(=O)N[C@@H](Cc1c[nH]c2ccccc12)C(N)=O [compound 72] (Lauroyl-KFKWPW-NH2)
[4]
  Minimal Inhibitory Concentrations (Mics): 4-8 Mg/Ml

## CCCCCCCCCCCCCC(=O)N[C@@H](CCCCN)C(=O)N[C@@H](Cc1ccccc1)C(=O)N[C@@H](CCCCN)C(=O)N[C@@H](Cc1c[nH]c2ccccc12)C(=O)N1CCC[C@H]1C(=O)N[C@@H](Cc1c[nH]c2ccccc12)C(N)=O [compound 77] (Myristoyl-KFKWPW-NH2)
[4]
  Minimal Inhibitory Concentrations (Mics): 8-16 Mg/Ml
[1]
  Minimal Inhibitory Concentrations (Mics): 4-8 Mg/Ml
[5]
  Minimal Inhibitory Concentrations (Mics): 64-128 Mg/Ml

## CCCCCCCCCCCCCCC(=O)N[C@@H](CCCCN)C(=O)N[C@@H](Cc1ccccc1)C(=O)N[C@@H](CCCCN)C(=O)N[C@@H](Cc1c[nH]c2ccccc12)C(=O)N1CCC[C@H]1C(=O)N[C@@H](Cc1c[nH]c2ccccc12)C(N)=O [compound 78] (Pentadecanoyl-KFKWPW-NH2)
[4]
  Minimal Inhibitory Concentrations (Mics): 32-64 Mg/Ml

## CCCCCCCCCCCCC(=O)N[C@@H](CCCCN)C(=O)N[C@@H](Cc1ccccc1)C(=O)N[C@@H](CCCCN)C(=O)N[C@@H](Cc1c[nH]c2ccccc12)C(=O)N1CCC[C@H]1C(=O)N[C@@H](Cc1c[nH]c2ccccc12)C(N)=O [compound 80] (Tridecanoyl-KFKWPW-NH2)
[4]
  Minimal Inhibitory Concentrations (Mics): 2-4 Mg/Ml

## FAKLLAKALKKLL-NH2 [SEQ ID NO: 87]
[6]
  MIC100: 500 µg/mL
[7]
  MIC100: 500 µg/mL

## FAKLLAKLAKKLL-NH2 [SEQ ID NO: 89]
[6]
  MIC100: 500 µg/mL
[7]
  MIC100: 500 µg/mL

## FALKALKKLKKALKKAL-NH2 [SEQ ID NO: 86]
[6]
  MIC100: 250 µg/mL
[7]
  MIC100: 1000 µg/mL

## H-KWKWFW-NH2 [compound 3]
[4]
  Minimal Inhibitory Concentrations (Mics): 32-64 Mg/Ml
[1]
  Minimal Inhibitory Concentrations (Mics): 64-64 Mg/Ml

## H-RFKWFW-NH2 [compound 7]
[4]
  Minimal Inhibitory Concentrations (Mics): 64-128 Mg/Ml
[1]; C. albicans strain 105
  Minimal Inhibitory Concentrations (Mics): 64-128^1 Mg/Ml

## KFKWPW-NH2 [SEQ ID NO: 1, KFKWPW-NH2]
[6]
  MIC100: 250 µg/mL
[7]
  MIC100: 250 µg/mL
[8]; buffer, 2 mg/ml, 30 min
  MRSA count in kill curve: 99200
[8]; buffer, 2 mg/ml, 1 hour
  MRSA count in kill curve: 62800
[8]; buffer, 2 mg/ml, 2 hours
  MRSA count in kill curve: 99200
[8]; buffer, 2 mg/ml, 3 hours
  MRSA count in kill curve: 99200
[8]; buffer, 2 mg/ml, 4 hours
  MRSA count in kill curve: 99200
[8]; buffer, 2 mg/ml, 5 hours
  MRSA count in kill curve: 99200
[8]; serum, 1 mg/ml, 30 min
  MRSA count in kill curve: 102300
[8]; serum, 1 mg/ml, 1 hour
  MRSA count in kill curve: 99600
[8]; serum, 1 mg/ml, 2 hours
  MRSA count in kill curve: 15110
[8]; serum, 1 mg/ml, 3 hours
  MRSA count in kill curve: 12080
[8]; serum, 1 mg/ml, 4 hours
  MRSA count in kill curve: 5020
[8]; serum, 1 mg/ml, 5 hours
  MRSA count in kill curve: 2570
[8]; serum, 2 mg/ml, 30 min
  MRSA count in kill curve: 9800
[8]; serum, 2 mg/ml, 1 hour
  MRSA count in kill curve: 3200
[8]; serum, 2 mg/ml, 2 hours
  MRSA count in kill curve: 630
[8]; serum, 2 mg/ml, 3 hours
  MRSA count in kill curve: 250
[8]; serum, 2 mg/ml, 4 hours
  MRSA count in kill curve: 70
[8]; serum, 2 mg/ml, 5 hours
  MRSA count in kill curve: 50
[5]
  MIC, lipid length SAR: 32

## Lau-KFKWPW-NH2 (Lauroyl-KFKWPW-NH2; SMILES CCCCCCCCCCCC(=O)N[C@@H](CCCCN)C(=O)N[C@@H](Cc1ccccc1)C(=O)N[C@@H](CCCCN)C(=O)N[C@@H](Cc1c[nH]c2ccccc12)C(=O)N1CCC[C@H]1C(=O)N[C@@H](Cc1c[nH]c2ccccc12)C(N)=O) [SEQ ID NO: 72]
[5]
  MIC, lipid length SAR: 32
[9]; ATCC 6922
  Activity (MIC) against P. acnes: 1
[9]; ATCC 6923
  Activity (MIC) against P. acnes: 1
[9]; ATCC 25746
  Activity (MIC) against P. acnes: 1
[9]; ATCC 29399
  Activity (MIC) against P. acnes: 2
[9]; ATCC 33179
  Activity (MIC) against P. acnes: 1
[9]; ATCC 51277
  Activity (MIC) against P. acnes: 1
[10]
  MIC, lipid length SAR: 32

## Tri-KFKWPW-NH2 (Tridecanoyl-KFKWPW-NH2; SMILES CCCCCCCCCCCCC(=O)N[C@@H](CCCCN)C(=O)N[C@@H](Cc1ccccc1)C(=O)N[C@@H](CCCCN)C(=O)N[C@@H](Cc1c[nH]c2ccccc12)C(=O)N1CCC[C@H]1C(=O)N[C@@H](Cc1c[nH]c2ccccc12)C(N)=O) [SEQ ID NO: 80]
[5]
  MIC, lipid length SAR: 32
[10]
  MIC, lipid length SAR: 32-64

## polymyxin B [reference compound]
[5]; P. aeruginosa 100609, tobromycin resistant
  MIC: 0.5 µg/mL
[5]; P. aeruginosa H187, wide type
  MIC: 0.5 µg/mL
[5]; P. aeruginosa H401, mucoid clinical isolate
  MIC: 0.25 µg/mL
[5]; P. aeruginosa M917, multi-drug resistant clinical isolate
  MIC: 1 µg/mL
[11]; P. aeruginosa 100609
  MIC-PXB-combined: 0.125 µg/mL
[11]; P. aeruginosa H187
  MIC-PXB-combined: 0.06 µg/mL
[11]; P. aeruginosa H401
  MIC-PXB-combined: 0.0625 µg/mL
[11]; P. aeruginosa M917
  MIC-PXB-combined: 0.25 µg/mL
